The assay addresses Envelope glycoprotein gp160 (Human immunodeficiency virus 1, UniProt Q6QLK5). Description: inhibitors of HIV fusion peptide binding, primary screen, biochemical, uHTS, fluorescence dequenching (AID 1986).

Activity calls are given as the source filed them. Rule as the data show it: actives have a measured IC50 and inactives only a lower limit.

Envelope glycoprotein gp160, sequence (Q6QLK5 whole entry, the tested form may be a part): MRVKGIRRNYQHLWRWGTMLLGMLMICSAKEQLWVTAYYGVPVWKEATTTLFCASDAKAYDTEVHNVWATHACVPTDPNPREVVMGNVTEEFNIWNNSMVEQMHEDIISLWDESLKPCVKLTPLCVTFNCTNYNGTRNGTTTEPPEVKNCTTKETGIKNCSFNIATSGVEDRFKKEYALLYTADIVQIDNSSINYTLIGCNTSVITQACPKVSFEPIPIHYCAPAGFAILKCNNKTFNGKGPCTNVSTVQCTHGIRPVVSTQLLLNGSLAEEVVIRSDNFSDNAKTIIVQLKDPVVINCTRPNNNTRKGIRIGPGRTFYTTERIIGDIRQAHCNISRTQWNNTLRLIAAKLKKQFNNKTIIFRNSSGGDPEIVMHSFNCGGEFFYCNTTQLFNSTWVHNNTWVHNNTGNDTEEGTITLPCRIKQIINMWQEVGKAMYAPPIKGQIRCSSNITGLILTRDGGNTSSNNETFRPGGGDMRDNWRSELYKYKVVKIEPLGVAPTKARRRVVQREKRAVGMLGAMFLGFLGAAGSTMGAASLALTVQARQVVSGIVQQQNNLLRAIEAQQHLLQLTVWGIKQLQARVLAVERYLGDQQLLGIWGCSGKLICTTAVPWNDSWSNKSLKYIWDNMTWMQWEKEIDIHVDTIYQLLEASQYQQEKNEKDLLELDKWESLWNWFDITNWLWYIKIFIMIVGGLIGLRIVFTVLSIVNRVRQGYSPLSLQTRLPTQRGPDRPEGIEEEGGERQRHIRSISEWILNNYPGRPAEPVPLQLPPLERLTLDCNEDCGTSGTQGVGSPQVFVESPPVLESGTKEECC

In general, IC50 refers to the concentration needed to halve the response being measured. As for `O=C(NN1C(=O)/C(=C/c2ccc(O)c([N+](=O)[O-])c2)SC1=S)c1ccccc1Cl`, the IC50 is 28.2 µM (active).
For the compound `CC(C)(C)CC(C)(C)c1ccc(OCC(=O)N/N=C/c2ccc(S(=O)(=O)O)o2)cc1`, the IC50 is 27.8 µM (active).

(Values after ChEMBL document CHEMBL1201862, “PubChem BioAssay data set” (2004).)
